From patent US12303474B2, “S-enantiomerically enriched compositions of beta blockers for treating amyotrophic lateral sclerosis” (priority 2013, dated 2025)
Like-named read-outs stand apart in the source and are kept apart here.

Assays:
[1] = system: G93A SOD1 B6SJL hybrid (G93A) model; assay: Body weight and body composition (lean mass, fat mass; NMR scans) in G93A SOD1 transgenic mice; assay type: in vivo; details: for Average Δ body weight / Average Δ fat mass / Average Δ lean mass: per day alive after disease onset
From the text: (§1) Transgenic mice over-expressing a high copy number (25 copies) of mutated human SOD1 gene with a G93A point mutation, i.e., B6SJL-TgN [SOD1-G93A]1 Gur (G1H-G93A transgenic mice, JR2726; Hemizygote) (Gurney M E, et al., Science, 264, 1772-1775, 1994) (“G93A SOD1 B6SJL hybrid (G93A) model”), were used.
[…] […] There were 16 mice in the S-oxprenolol group.
The primary endpoint was survival, humanely defined as the ability of the animal to right itself in 30 seconds after being laid on its side. Secondary endpoints were body weight, body composition, spontaneous activity and food intake. Body weight of the animals was assessed weekly until onset of disease. Additionally, body composition (fat mass and lean body mass) was assessed using NMR scans (EchoMRI-100, Echo Medical Systems, Houston, USA) every 4 days. After onset of disease, body weight and body composition were assessed every two days until the end of the study. All personal handling the animals was strictly blinded to the randomized treatment allocation.
To study the effect of S-oxprenolol on body weight, body weight was monitored over time.
To study the effect of the test compounds on lean body mass, lean mass was determined at the end of the study.
To study the effect of the test compounds on fat mass, the fat mass were determined at the end of the study.
To study the effect of S-oxprenolol on body weight, body weight was monitored over time. […] The number of all mice in the population is indicated as “n” in at the bottom of FIGS. 20A-20C.
To study the effect of the test compounds on lean body mass, lean mass was determined at the end of the study. […] The number of all mice in the population is indicated as “n” in at the bottom of FIGS. 20D-20F.
To study the effect of the test compounds on fat mass, the fat mass were determined at the end of the study. […] The number of all mice in the population is indicated as “n” in at the bottom of FIGS. 20G-20I.

[2] = system: G93A SOD1 B6SJL hybrid (G93A) model; details: for Heart / gastrocnemius: end of study;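 on HR survival (FIG. 14): dosing began after ALS onset in G93A SOD1 mice, with survival as the endpoint, defined humanely as the animal failing to regain upright posture within 30 s when placed sideways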;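 on HR survival (FIG. 16): dosing began after ALS onset in G93A SOD1 mice, with survival as the endpoint, defined humanely as the animal failing to regain upright posture within 30 s when placed sideways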
Experimental: as §1
To study the effect of the test compounds on skeletal muscle atrophy, the skeletal muscle mass were determined at the end of the study.
The number of all mice in the population is indicated as “n” in at the bottom of FIGS. 21A-21C.
The number of all mice in the population is indicated as “n” in at the bottom of FIGS. 20D-20F.
The number of all mice in the population is indicated as “n” in at the bottom of FIGS. 21G-21I.

[3] = system: G93A SOD1 B6SJL hybrid (G93A) model; details: 10 mg/kg/day vs. placebo;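 on HR survival (FIG. 14): dosing began after ALS onset in G93A SOD1 mice, with survival as the endpoint, defined humanely as the animal failing to regain upright posture within 30 s when placed sideways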;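 on HR survival (FIG. 16): dosing began after ALS onset in G93A SOD1 mice, with survival as the endpoint, defined humanely as the animal failing to regain upright posture within 30 s when placed sideways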
From the text: To study the effect of S-oxprenolol on survival, survival was monitored over time.

[4] = system: G93A SOD1 B6SJL hybrid (G93A) model; assay: Disease progression score (JAX SOP) in G93A SOD1 transgenic mice
From the text: The disease progression score is based on the JAX SOP (Ludolph A C, Bendotti C, Blaugrund E, Hengerer B, Loffler J P, Martin J, Meininger V, Meyer T, Moussaoui S, Robberecht W, Scott S, Silani V, Van Den Berg L H (ENMC Group For The Establishment Of Guidelines For The Conduct Of Preclinical And Proof Of Concept Studies In ALS/MND Models). 2007, which is incorporated by reference).

Question: Which Δ body weight ([1]; all mice, 10 mg/kg/d) does the source give for `CC(C)NCC(O)COc1cccc2ccccc12` (centres unmarked) [propanolol] here?
Answer: The Δ body weight was -5.89 ± 0.42 g.

Question: And the Δ fat mass ([1]; all mice, 10 mg/kg/d)?
Answer: Its Δ fat mass is -1.82 ± 0.25 g.

Question: What about the Δ lean mass ([1]; all mice, 10 mg/kg/d) of the same compound?
Answer: Its Δ lean mass is -4.89 ± -0.26 g.

Question: And the “Average Δ body weight” value ([1]; all mice, 10 mg/kg/d)?
Answer: The value was -127.6 ± 10.6 mg/day.

Question: And the “Average Δ fat mass” value ([1]; all mice, 10 mg/kg/d)?
Answer: The value was -43.9 ± 5.5 mg/day.

Question: And the Δ body weight ([1]; female mice, 10 mg/kg/d)?
Answer: Its Δ body weight is -5.66 ± 0.66 g.

Question: What about the Δ fat mass ([1]; female mice, 10 mg/kg/d) of the same compound?
Answer: Its Δ fat mass is -1.65 ± 0.44 g.

Question: And the Δ lean mass ([1]; female mice, 10 mg/kg/d)?
Answer: Its Δ lean mass is -4.70 ± 0.37 g.

Question: What about the “Average Δ body weight” value ([1]; female mice, 10 mg/kg/d) of the same compound?
Answer: The value was -111.3 ± 13.2 mg/day.

Question: And the “Average Δ fat mass” value ([1]; female mice, 10 mg/kg/d)?
Answer: The value was -30.9 ± 8.3 mg/day.

Question: And the “Average Δ lean mass” value ([1]; female mice, 10 mg/kg/d)?
Answer: Its value is -91.2 ± 8.3 mg/day.

Question: And the Δ body weight ([1]; male mice, 10 mg/kg/d)?
Answer: The Δ body weight was -6.11 ± 0.54 g.

Question: And the Δ fat mass ([1]; male mice, 10 mg/kg/d)?
Answer: Its Δ fat mass is -1.99 ± 0.26 g.

Question: And the Δ lean mass ([1]; male mice, 10 mg/kg/d)?
Answer: The Δ lean mass was -5.06 ± 0.37 g.

Question: What about the “Average Δ body weight” value ([1]; male mice, 10 mg/kg/d) of the same compound?
Answer: The value was -142.7 ± 15.9 mg/day.

Question: What about the “Average Δ fat mass” value ([1]; male mice, 10 mg/kg/d) of the same compound?
Answer: The value was -51.9 ± 6.9 mg/day.

Question: And the “Average Δ lean mass” value ([1]; male mice, 10 mg/kg/d)?
Answer: The value was -118.6 ± 10.6 mg/day.

Question: What about the “BAT (brown adipose tissue)” value ([2]; all mice, 10 mg/kg/d) of the same compound?
Answer: The value was 45.1 ± 2.9 mg.

Question: And the “EDL (extensor digitorum longus)” value ([2]; all mice, 10 mg/kg/d)?
Answer: The value was 7.11 ± 0.37 mg.

Question: And the soleus ([2]; all mice, 10 mg/kg/d)?
Answer: The soleus was 5.60 ± 0.28 mg.

Question: And the Heart ([2]; all mice, 10 mg/kg/d)?
Answer: Its Heart is 104.0 ± 3.2 mg.

Question: What about the gastrocnemius ([2]; all mice, 10 mg/kg/d) of the same compound?
Answer: Its gastrocnemius is 52.4 ± 3.3 mg.

Question: And the “BAT (brown adipose tissue)” value ([2]; female mice, 10 mg/kg/d)?
Answer: Its value is 41.2 ± 2.2 mg.

Question: And the “EDL (extensor digitorum longus)” value ([2]; female mice, 10 mg/kg/d)?
Answer: Its value is 6.21 ± 0.37 mg.

Question: And the soleus ([2]; female mice, 10 mg/kg/d)?
Answer: Its soleus is 5.57 ± 0.43 mg.

Question: And the Heart ([2]; female mice, 10 mg/kg/d)?
Answer: Its Heart is 93.8 ± 2.7 mg.

Question: And the gastrocnemius ([2]; female mice, 10 mg/kg/d)?
Answer: Its gastrocnemius is 40.6 ± 3.3 mg.

Question: And the “BAT (brown adipose tissue)” value ([2]; male mice, 10 mg/kg/d)?
Answer: Its value is 48.7 ± 5.1 mg.

Question: What about the “EDL (extensor digitorum longus)” value ([2]; male mice, 10 mg/kg/d) of the same compound?
Answer: The value was 7.94 ± 0.55 mg.

Question: What about the soleus ([2]; male mice, 10 mg/kg/d) of the same compound?
Answer: The soleus was 5.63 ± 0.38 mg.

Question: And the Heart ([2]; male mice, 10 mg/kg/d)?
Answer: Its Heart is 113.5 ± 4.6 mg.

Question: And the gastrocnemius ([2]; male mice, 10 mg/kg/d)?
Answer: The gastrocnemius was 63.3 ± 3.6 mg.

Question: What about the “HR survival (FIG. 14)” value ([3]; all mice) of the same compound?
Answer: The value was 0.73.

Question: And the “HR survival (FIG. 16)” value ([3]; female mice)?
Answer: The value was 0.71.

Question: And the “HR survival (FIG. 15)” value ([3]; male mice)?
Answer: Its value is 0.59.

Question: What about the “HR Progression from score 1 to score 2 (FIG. 17)” value ([4]; 10 mg/kg/day vs. placebo) of the same compound?
Answer: The value was 0.64.

Question: And the “HR Progression from score 1 to score 3 (FIG. 19)” value ([4]; 10 mg/kg/day vs. placebo)?
Answer: The value was 0.72.

Question: What about the “HR Progression from score 2 to score 3 (FIG. 18)” value ([4]; 10 mg/kg/day vs. placebo) of the same compound?
Answer: Its value is 0.99.

Question: How did the Δ body weight ([1]; all mice, 30 mg/kg/d) turn out when `Nc1nc2ccc(OC(F)(F)F)cc2s1` [rilutek] was run?
Answer: Its Δ body weight is -5.10 ± 0.35 g.

Question: And the Δ fat mass ([1]; all mice, 30 mg/kg/d)?
Answer: The Δ fat mass was -1.91 ± 0.15 g.

Question: And the Δ lean mass ([1]; all mice, 30 mg/kg/d)?
Answer: The Δ lean mass was -3.71 ± 0.27 g.

Question: What about the “Average Δ body weight” value ([1]; all mice, 30 mg/kg/d) of the same compound?
Answer: Its value is -121.6 ± 15.2 mg/day.

Question: And the “Average Δ fat mass” value ([1]; all mice, 30 mg/kg/d)?
Answer: The value was -50.1 ± 6.1 mg/day.

Question: And the “Average Δ lean mass” value ([1]; all mice, 30 mg/kg/d)?
Answer: The value was -92.31 ± 15.84 mg/day.

Question: And the Δ body weight ([1]; female mice, 30 mg/kg/d)?
Answer: The Δ body weight was -4.49 ± 0.46 g.

Question: What about the Δ fat mass ([1]; female mice, 30 mg/kg/d) of the same compound?
Answer: Its Δ fat mass is -1.76 ± 0.21 g.

Question: And the Δ lean mass ([1]; female mice, 30 mg/kg/d)?
Answer: Its Δ lean mass is -3.31 ± 0.37 g.

Question: What about the “Average Δ body weight” value ([1]; female mice, 30 mg/kg/d) of the same compound?
Answer: Its value is -122.9 ± 25.7 mg/day.

Question: And the “Average Δ fat mass” value ([1]; female mice, 30 mg/kg/d)?
Answer: Its value is -42.2 ± 6.1 mg/day.

Question: What about the “Average Δ lean mass” value ([1]; female mice, 30 mg/kg/d) of the same compound?
Answer: Its value is -96.9 ± 24.2 mg/day.

Question: What about the Δ body weight ([1]; male mice, 30 mg/kg/d) of the same compound?
Answer: Its Δ body weight is -5.91 ± 0.43 g.

Question: And the Δ fat mass ([1]; male mice, 30 mg/kg/d)?
Answer: Its Δ fat mass is -2.09 ± 0.22 g.

Question: And the Δ lean mass ([1]; male mice, 30 mg/kg/d)?
Answer: Its Δ lean mass is -4.19 ± 0.38 g.

Question: And the “Average Δ body weight” value ([1]; male mice, 30 mg/kg/d)?
Answer: The value was -120.4 ± 17.9 mg/day.

Question: What about the “Average Δ fat mass” value ([1]; male mice, 30 mg/kg/d) of the same compound?
Answer: Its value is -57.5 ± 11.3 mg/day.

Question: And the “Average Δ lean mass” value ([1]; male mice, 30 mg/kg/d)?
Answer: Its value is -87.4 ± 21.1 mg/day.

Question: What about the “EDL (extensor digitorum longus)” value ([2]; all mice, 30 mg/kg/d) of the same compound?
Answer: Its value is 6.71 ± 0.32 mg.

Question: What about the soleus ([2]; all mice, 30 mg/kg/d) of the same compound?
Answer: Its soleus is 5.47 ± 0.39 mg.

Question: And the Heart ([2]; all mice, 30 mg/kg/d)?
Answer: The Heart was 103.5 ± 2.8 mg.

Question: And the gastrocnemius ([2]; all mice, 30 mg/kg/d)?
Answer: Its gastrocnemius is 55.2 ± 3.0 mg.

Question: And the “EDL (extensor digitorum longus)” value ([2]; female mice, 30 mg/kg/d)?
Answer: Its value is 6.28 ± 039 mg.

Question: And the soleus ([2]; female mice, 30 mg/kg/d)?
Answer: Its soleus is 5.26 ± 0.48 mg.

Question: What about the Heart ([2]; female mice, 30 mg/kg/d) of the same compound?
Answer: The Heart was 91.4 ± 2.3 mg.

Question: What about the gastrocnemius ([2]; female mice, 30 mg/kg/d) of the same compound?
Answer: Its gastrocnemius is 54.1 ± 3.8 mg.

Question: What about the “EDL (extensor digitorum longus)” value ([2]; male mice, 30 mg/kg/d) of the same compound?
Answer: Its value is 7.20 ± 0.51 mg.

Question: And the soleus ([2]; male mice, 30 mg/kg/d)?
Answer: Its soleus is 5.72 ± 0.64 mg.

Question: And the Heart ([2]; male mice, 30 mg/kg/d)?
Answer: The Heart was 115.6 ± 2.4 mg.

Question: What about the gastrocnemius ([2]; male mice, 30 mg/kg/d) of the same compound?
Answer: Its gastrocnemius is 58.3 ± 4.9 mg.

Question: What about the “HR Progression from score 1 to score 2 (FIG. 17)” value ([4]; 30 mg/kg/day vs. placebo) of the same compound?
Answer: The value was 0.82.

Question: What about the “HR Progression from score 1 to score 3 (FIG. 19)” value ([4]; 30 mg/kg/day vs. placebo) of the same compound?
Answer: Its value is 0.76.

Question: And the “HR Progression from score 2 to score 3 (FIG. 18)” value ([4]; 30 mg/kg/day vs. placebo)?
Answer: Its value is 0.68.
